Patent US20210379079A1, “COMPOSITIONS COMPRISING CD20 INHIBITORS AND BISFLUOROALKYL-1,4-BENZODIAZEPINONE COMPOUNDS AND METHODS OF USE THEREOF” (Ayala Pharmaceuticals Inc., priority 2018, published 2021)

What was measured:
Assay in all cases: Cell surface CD20 levels by flow cytometry (FACS) after GSI treatment
Assay type in all cases: cell-based
SP49 cells = details: for cell surface CD20 levels: SP49 (MCL with Notch4 GOF), 7 days, 0-10000 nM, FIGS. 1A-1B
Experimental: (§1) The effect of γ-secretase inhibitors (GSIs) on levels of CD20 in lymphoma cell lines was examined (FIG. 1). Cells from five different lymphoma cell lines (SP49 (mantle cell lymphoma (MCL) with Notch4 GOF); Toledo (Diffuse large B-cell lymphoma (DLBCL)); RC (Double Hit DLBCL-MYC, BCL2); SUDHL-4 (DLBCL); and SUDHL-6 (DLBCL)) were treated for 7 days with 0, 1 nM, 10 nM, 100 nM, 500 nM, 1000 nM, and 10000 nM of the following GSIs: Compound 1 (FIG. 1A) or Compound 22 (FIG. 1B). Cell surface CD20 levels were observed by flow cytometry (FACS analysis).
(§2) In a separate experiment, cells from lymphoma cell lines SUDHL-4 (DLBCL); Rec-1 (MCL); and SP49 (MCL) were seeded at 1×10^4 cells/well in a total volume of 250 μl into a 96-well plate. The cells were cultured in RPMI supplemented with 10% FCS.
(§3) Compound 1 or Compound 22 were added to the cell cultures at concentrations of 10, 1, 0.5, 0.1, 0.01, 0.001 μM. Following 7 days of incubation at 37° C., the cells were collected and stained with anti CD20 antibody and cell surface CD20 levels were immediately analyzed by flow cytometry (FACS analysis).

SUDHL-4 cells = details: SUDHL-4 (DLBCL); for CD20 levels: separate experiment, 0.001-10 μM, 7 days at 37° C., FIG. 2
Experimental: as §1, §2, §3

Rec-1 (MCL) = details: separate experiment, 0.001-10 μM, 7 days at 37° C., FIG. 2
Experimental: as §2, §3

Row | SMILES | cell surface CD20 levels (SP49 cells) | CD20 levels (SUDHL-4 cells) | CD20 levels (Rec-1 (MCL)) | CD20 levels (SP49 cells; separate experiment, SP49 (MCL), 0.001-10 μM, 7 days at 37° C., FIG. 2) | cell surface CD20 levels (SUDHL-4 cells; 7 days, 0-10000 nM, FIG. 1A)
1 | Cc1cccc2c1NC(=O)[C@@H](NC(=O)[C@H](CCC(F)(F)F)[C@H](CCC(F)(F)F)C(N)=O)N=C2c1cccc(F)c1 [Compound 22, (2R,3S)-N-((3S)-5-(3-fluorophenyl)-9-methyl-2-oxo-2,3-dihydro-1H-1,4-benzodiazepin-3-yl)-2,3-bis(3,3,3-trifluoropropyl)succinamide] | increased cell surface CD20 levels | dose-dependent increase in CD20 levels | dose-dependent increase in CD20 levels |  | 
2 | CN1C(=O)[C@@H](NC(=O)[C@H](CCC(F)(F)F)[C@H](CCC(F)(F)F)C(N)=O)N=C(c2ccccc2)c2ccccc21 [Compound 1, (2R,3S)-N-((3S)-1-methyl-2-oxo-5-phenyl-2,3-dihydro-1H-1,4-benzodiazepin-3-yl)-2,3-bis(3,3,3-trifluoropropyl)succinamide] | increased cell surface CD20 levels | dose-dependent increase in CD20 levels | dose-dependent increase in CD20 levels | dose-dependent increase in CD20 levels | increased cell surface CD20 levels
